Test results from patent publication US20220119354A1, “DIAMINO-SUBSTITUTED PYRIDINES AND PYRIMIDINES AS HERBICIDES” (FMC Corporation, priority 2019, published 2022).

Tests used:
Type in all cases: in vivo
kochia (Kochia scoparia) [1] = assay: Test A preemergence, kochia; details: 0 to 100 scale, 0 is no effect, 100 is complete control
How it was run: (§1)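 0–100 visual control rating, ~10 d post-treatment, greenhouse. Pre = directed soil spray on seeded loam/sand; post = spray at 1–2 leaf stage. Surfactant-containing solvent formulation.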

[2] = tested on: foxtail, giant (Setaria faberii); assay: Test A preemergence, giant foxtail; details: 0 to 100 scale, 0 is no effect, 100 is complete control
How it was run: as §1

rice (Oryza sativa) = assay: Test B flooded paddy test, rice; details: Flood, 250 g ai/ha, applied to paddy water, 2-leaf stage, visual evaluation after 13 to 15 d
How it was run: (§2)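 Plants grown to 2-leaf stage. Compounds applied directly into paddy water flooded 3 cm above soil, with that depth kept throughout. After 13–15 d in greenhouse, visual rating versus controls on a 0–100 scale (0 no effect, 100 complete control).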

[3] = tested on: sedge, umbrella (small-flower umbrella sedge, Cyperus difformis); assay: Test B flooded paddy test, umbrella sedge; details: Flood, 250 g ai/ha, applied to paddy water, 2-leaf stage, visual evaluation after 13 to 15 d
How it was run: as §2

[4] = tested on: pigweed (Amaranthus retroflexus); assay: Test A postemergence, pigweed; details: 0 to 100 scale, 0 no effect, 100 complete control
How it was run: as §1

[5] = tested on: pigweed (Amaranthus retroflexus); assay: Test A preemergence, pigweed; details: 0 to 100 scale, 0 is no effect, 100 is complete control
How it was run: as §1

[6] = tested on: ryegrass, Italian (Lolium multiflorum); assay: Test A postemergence, Italian ryegrass; details: 0 to 100 scale, 0 no effect, 100 complete control
How it was run: as §1

[7] = tested on: galium (catchweed bedstraw, Galium aparine); assay: Test A postemergence, galium; details: 0 to 100 scale, 0 no effect, 100 complete control
How it was run: as §1

[8] = tested on: ragweed (common ragweed, Ambrosia elatior); assay: Test A preemergence, ragweed; details: 0 to 100 scale, 0 is no effect, 100 is complete control
How it was run: as §1

[9] = tested on: ragweed (common ragweed, Ambrosia elatior); assay: Test A postemergence, ragweed; details: 0 to 100 scale, 0 no effect, 100 complete control
How it was run: as §1

[10] = tested on: ryegrass, Italian (Lolium multiflorum); assay: Test A preemergence, Italian ryegrass; details: 0 to 100 scale, 0 is no effect, 100 is complete control
How it was run: as §1

corn (Zea mays) = assay: Test A postemergence, corn; details: 0 to 100 scale, 0 no effect, 100 complete control
How it was run: as §1

[11] = tested on: barnyardgrass (Echinochloa crus-galli); assay: Test B flooded paddy test, barnyardgrass; details: Flood, 250 g ai/ha, applied to paddy water, 2-leaf stage, visual evaluation after 13 to 15 d
How it was run: as §2

[12] = tested on: blackgrass (Alopecurus myosuroides); assay: Test A postemergence, blackgrass; details: 0 to 100 scale, 0 no effect, 100 complete control
How it was run: as §1

[13] = tested on: ducksalad (Heteranthera limosa); assay: Test B flooded paddy test, ducksalad; details: Flood, 250 g ai/ha, applied to paddy water, 2-leaf stage, visual evaluation after 13 to 15 d
How it was run: as §2

[14] = tested on: barnyardgrass (Echinochloa crus-galli); assay: Test A preemergence, barnyardgrass; details: 0 to 100 scale, 0 is no effect, 100 is complete control
How it was run: as §1

[15] = tested on: foxtail, giant (Setaria faberii); assay: Test A postemergence, giant foxtail; details: 0 to 100 scale, 0 no effect, 100 complete control
How it was run: as §1

[16] = tested on: wheat (Triticum aestivum); assay: Test A postemergence, wheat; details: 0 to 100 scale, 0 no effect, 100 complete control
How it was run: as §1

kochia (Kochia scoparia) [17] = assay: Test A postemergence, kochia; details: 0 to 100 scale, 0 no effect, 100 complete control
How it was run: as §1

[18] = tested on: barnyardgrass (Echinochloa crus-galli); assay: Test A postemergence, barnyardgrass; details: 0 to 100 scale, 0 no effect, 100 complete control
How it was run: as §1

Row | Compound | Kochia plant response rating (kochia (Kochia scoparia) [1]; 125 g ai/ha) | Kochia plant response rating (kochia (Kochia scoparia) [1]; 500 g ai/ha) | Foxtail, Giant plant response rating ([2]; 125 g ai/ha) | Foxtail, Giant plant response rating ([2]; 500 g ai/ha) | Plant response rating, Rice (0 to 100 scale, 0 is no effect, 100 is complete control) (rice (Oryza sativa)) | Plant response rating, Sedge, Umbrella (0 to 100 scale, 0 is no effect, 100 is complete control) [3] | Plant response rating, Pigweed ([4]; 125 g ai/ha) | Plant response rating, Pigweed ([4]; 500 g ai/ha) | Pigweed plant response rating ([5]; 125 g ai/ha) | Pigweed plant response rating ([5]; 500 g ai/ha) | Plant response rating, Ryegrass, Italian ([6]; 125 g ai/ha) | Plant response rating, Ryegrass, Italian ([6]; 500 g ai/ha) | Plant response rating, Galium ([7]; 125 g ai/ha) | Plant response rating, Galium ([7]; 500 g ai/ha) | Ragweed plant response rating ([8]; 125 g ai/ha) | Ragweed plant response rating ([8]; 500 g ai/ha) | Plant response rating, Ragweed ([9]; 125 g ai/ha) | Plant response rating, Ragweed ([9]; 500 g ai/ha) | Ryegrass, Italian plant response rating ([10]; 125 g ai/ha) | Ryegrass, Italian plant response rating ([10]; 500 g ai/ha) | also measured
1 | CC(=O)c1cnc(NC(C)c2cc3ccccc3s2)nc1N (stereo not drawn) [Compound 57] | 0 | 60 | 30 | 90 | 0 | 80 | 60 | 80 | 30 | 100 | 0 | 60 | 60 | 80 | 60 | 100 | 40 | 70 | 20 | 50 | Plant response rating, Corn (corn (Zea mays); 125 g ai/ha): 0; Plant response rating, Corn (corn (Zea mays); 500 g ai/ha): 20; Plant response rating, Barnyardgrass (0 to 100 scale, 0 is no effect, 100 is complete control) [11]: 0; Plant response rating, Blackgrass ([12]; 125 g ai/ha): 0; Plant response rating, Blackgrass ([12]; 500 g ai/ha): 10; Plant response rating, Ducksalad (0 to 100 scale, 0 is no effect, 100 is complete control) [13]: 30; Barnyardgrass plant response rating ([14]; 125 g ai/ha): 0; Barnyardgrass plant response rating ([14]; 500 g ai/ha): 70; Plant response rating, Foxtail, Giant ([15]; 125 g ai/ha): 0; Plant response rating, Foxtail, Giant ([15]; 500 g ai/ha): 50; Plant response rating, Wheat ([16]; 125 g ai/ha): 0; Plant response rating, Wheat ([16]; 500 g ai/ha): 20; Plant response rating, Kochia (kochia (Kochia scoparia) [17]; 125 g ai/ha): 0; Plant response rating, Kochia (kochia (Kochia scoparia) [17]; 500 g ai/ha): 60; Plant response rating, Barnyardgrass ([18]; 125 g ai/ha): 0; Plant response rating, Barnyardgrass ([18]; 500 g ai/ha): 70
2 | C[C@H](Nc1ncc(C(F)(F)F)c(N)n1)c1cc2c(F)cccc2o1 [Compound 74] | 0 | 0 | 0 | 0 | 0 | 0 | 60 | 90 | 0 | 10 | 0 | 0 | 0 | 50 | 0 | 40 | 20 | 30 | 0 | 0 | Plant response rating, Corn (corn (Zea mays); 125 g ai/ha): 0; Plant response rating, Corn (corn (Zea mays); 500 g ai/ha): 0; Plant response rating, Barnyardgrass (0 to 100 scale, 0 is no effect, 100 is complete control) [11]: 0; Plant response rating, Blackgrass ([12]; 125 g ai/ha): 0; Plant response rating, Blackgrass ([12]; 500 g ai/ha): 0; Plant response rating, Ducksalad (0 to 100 scale, 0 is no effect, 100 is complete control) [13]: 0; Barnyardgrass plant response rating ([14]; 125 g ai/ha): 0; Barnyardgrass plant response rating ([14]; 500 g ai/ha): 0; Plant response rating, Foxtail, Giant ([15]; 125 g ai/ha): 0; Plant response rating, Foxtail, Giant ([15]; 500 g ai/ha): 0; Plant response rating, Wheat ([16]; 125 g ai/ha): 0; Plant response rating, Wheat ([16]; 500 g ai/ha): 0; Plant response rating, Kochia (kochia (Kochia scoparia) [17]; 125 g ai/ha): 20; Plant response rating, Kochia (kochia (Kochia scoparia) [17]; 500 g ai/ha): 60; Plant response rating, Barnyardgrass ([18]; 125 g ai/ha): 0; Plant response rating, Barnyardgrass ([18]; 500 g ai/ha): 0
